Consider eleven compounds from patent publication US8580831B2, “Fluorinated aminotriazole derivatives” (Actelion Pharmaceuticals Ltd., priority 2009, dated 2013).

Broadly, the EC50 is the concentration giving half of the maximal effect.

The target in one data set is T1, human ALX receptor (Homo sapiens, UniProt P25090).
T1 construct: expressed in transfected cells; host or cells: HEK293 (HEK293-hALXR-Ga16)
T1 sequence (P25090 1-351): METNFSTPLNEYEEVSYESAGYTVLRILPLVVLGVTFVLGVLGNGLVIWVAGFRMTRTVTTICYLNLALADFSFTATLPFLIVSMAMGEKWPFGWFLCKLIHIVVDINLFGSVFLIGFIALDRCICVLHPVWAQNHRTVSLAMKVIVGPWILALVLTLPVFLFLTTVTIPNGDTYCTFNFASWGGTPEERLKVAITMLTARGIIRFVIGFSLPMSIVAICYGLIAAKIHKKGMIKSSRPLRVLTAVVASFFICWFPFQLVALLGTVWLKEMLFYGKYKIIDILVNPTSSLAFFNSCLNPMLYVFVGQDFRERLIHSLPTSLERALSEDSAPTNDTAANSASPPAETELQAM
In words: Intracellular calcium measurements (FLIPR), ALX receptor agonistic activity. The format is cell-based. To be noted: HEK293-hALXR-Ga16 cells, calcium flux, normalized to WKYMVm 10 nM; read-out: EC50 (agonistic activity with respect to the ALX receptor). Here is the method:
The ALX receptor agonistic activity of the compounds of formula (I) is determined in accordance with the following experimental method.
Intracellular Calcium Measurements:
Cells expressing recombinant human ALX receptor and the G-protein Ga16 (HEK293-hALXR-Ga16) were grown to 80% confluency in Growing Medium (GM). Cells were detached from culture dishes with a cell dissociation buffer (Invitrogen, 13151-014), and collected by centrifugation at 1′000 rpm at rt for 5 min in Assay Buffer (AB) (equal parts of Hank's BSS (Gibco, 14065-049) and DMEM without Phenol Red (Gibco, 11880-028)). After 60 min incubation at 37° C. under 5% CO2 in AB supplemented with 1 μM Fluo-4 (AM) (Invitrogen, F14202) and 20 mM HEPES (Gibco, 15630-056), the cells were washed and resuspended in AB. They were then seeded onto 384-well FLIPR assay plates (Greiner, 781091) at 50′000 cells in 70 μl per well and sedimented by centrifugation at 1′000 rpm for 1 min. Stock solutions of test compounds were made up at a concentration of 10 mM in DMSO, and serially diluted in AB to concentrations required for activation dose response curves. WKYMVm (Phoenix Peptides) was used as a reference agonist. A FLIPR Tetra instrument (Molecular Devices) was operated according to the manufacturer's standard instructions, adding 4 μl of test compound dissolved at 10 mM in DMSO and diluted prior to the experiment in assay buffer to obtain the desired final concentration. Changes in fluorescence were monitored before and after the addition of test compounds at lex=488 nm and lem=540 nm. Emission peak values above base level after compounds addition were exported after base line subtraction. Values were normalized to high-level control (WKYMVm compound, 10 nM final concentration) after subtraction of the base line value (AB addition).

In data set [1] the test system is proteins of human liver microsomes (HLM). In words: Covalent binding between reactive metabolites and proteins using human liver microsomes. The format is in vitro ADME. As for the experimental part: Assay for Covalent Binding Between Reactive Metabolites and Proteins Using Human Liver Microsomes
The objective of the described covalent binding assay is to determine the amount of covalent binding between reactive metabolites and proteins of human liver microsomes (HLM) per hour following incubation in the presence of an NADPH regenerating system. The measured covalent binding rate is expressed in pmol bound drug equivalent/mg protein/h. It is a well-known advantage if compounds have a low tendency to bind covalently to proteins.
The radiolabelled compounds (^3H or ^14C) were incubated at a concentration of 10 μM in a single 96 well plate with 1.0 mg/mL of human liver microsomes in 0.1 M phosphate buffer (pH 7.4). To this end, a volume of 2.5 μL 1 mM stock solution prepared in the respective solvent (ethanol) was added to a final volume of 250 μL. Incubations were performed in the absence or presence of the NADPH-regenerating system with glucose-6-phosphate dehydrogenase (20 IU/ml dehydrogenase, 25 μl with 11 mM NADP sodium salt, 100 mM glucose-6-phosphate disodium salt, 100 mM MgCl2 in 0.1 M Tris buffer, pH 7.4) and additionally in the absence or presence of 5 mM GSH to trap reactive intermediates. An initial blank value without NADPH without incubation was also determined to determine unspecific rapid binding. Reactions were initiated by addition of 25 μL of an NADPH-regenerating system and terminated after one hour by adding 200 μL of the incubation mixture on a multiscreen deep well solvinert 96 hydrophobic PTFE filter plate (Millipore, Zug, Switzerland) containing 260 μL of ice-cold acetonitrile. The precipitation of microsomal proteins was completed by shaking the plate at 600 rpm at a temperature of 15° C. for 15 min. Finally, the precipitated incubation was stored at 4° C. for 15 min in the fridge. Proteins and filtrates were separated by centrifugation at 1800 g for 20 min at 10° C. The protein pellet was washed to remove unspecific binding with 800 μL of methanol/0.1% sulfuric acid (v/v) by centrifugation at 1500 g, 10° C. and 2 min. The washing step was repeated six times. The washed protein pellet was redissolved by addition of 500 μL of aqueous 0.1% (w/v) NaOH/1% (w/v) SDS. The filter plate was shaken at 400 rpm for 45 min at 60° C. and centrifugated at 2000 g for 20 min at 35° C. This step was repeated once and the protein solutions were combined.
For the determination of total radioactivity, an aliquot of 400 μL protein solution was mixed with 4 mL of liquid scintillation cocktail (Irga Safe plus, Perkin Elmer, Zurich, Switzerland) and analyzed using a Tricarb 2300 TR liquid scintillation analyzer (Perkin Elmer) with luminescence correction and on-line quenching correction by means of an external standard (^133Ba). For the determination of total protein content, an aliquot of 20 μL protein solution was analyzed using the BCA protein assay kit (Perbio Science Switzerland SA, Lausanne, Switzerland). The amount of covalent binding to microsomal proteins was calculated as follows: Dividing the determined amount of bound drug equivalent with NADPH (background subtracted by the amount of bound drug equivalent without NADPH) by the calculated amount of protein of redissolved washed protein pellet in each well gives the amount of bound drug equivalent in pmol/mg protein per hour.

Regarding `Cc1cccc(-c2oc(C)nc2C(=O)Nc2cnn(Cc3nc(C(C)(F)F)co3)n2)c1` [Example 31, 2-Methyl-5-m-tolyl-oxazole-4-carboxylic acid {2-[4-(1,1-difluoro-ethyl)-oxazol-2-ylmethyl]-2H-[1,2,3]triazol-4-yl}-amide], the EC50 at human ALX receptor was determined as 2.4 nM. The “Covalent binding profile compared to compounds of WO 2009/077990” value in data set [1] (in words, versus examples 18 and 75 of WO 2009/077990) was “superior covalent binding profile”. In data set [1] (tritiated compound 10 μM, 1.0 mg/mL HLM, 1 h, with NADPH and 5 mM GSH), the “Covalent binding, HLM with NADPH and GSH” value worked out at 28 pmol/mg protein per hour. For the same compound, the “Covalent binding, HLM with NADPH” value in data set [1] (tritiated compound 10 μM, 1.0 mg/mL HLM, 1 h, with NADPH-regenerating system) is on record as 22 pmol/mg protein per hour. Also, the “Covalent binding, HLM without NADPH” value in data set [1] (tritiated compound 10 μM, 1.0 mg/mL HLM, 1 h, without NADPH) turned out to be 3 pmol/mg protein per hour. Also, the “Covalent binding, HLM with NADPH (background corrected as described above) [amount of bound drug equivalent]” value in data set [1] (tritiated compound 10 μM, 1.0 mg/mL HLM, 1 h, value without NADPH subtracted) was determined as 19 pmol/mg protein per hour.

For `CC(F)(F)c1csc(Cn2ncc(NC(=O)c3ncoc3-c3cccc(F)c3)n2)n1` [Example 20, 5-(3-Fluoro-phenyl)-oxazole-4-carboxylic acid {2-[4-(1,1-difluoro-ethyl)-thiazol-2-ylmethyl]-2H-[1,2,3]triazol-4-yl}-amide], at human ALX receptor, the EC50 is 55 nM. With `Cc1nc(C(=O)Nc2cnn(Cc3ccc(C(C)(F)F)o3)n2)c(-c2ccccc2)o1` [Example 4, 2-Methyl-5-phenyl-oxazole-4-carboxylic acid{2-[5-(1,1-difluoro-ethyl)-furan-2-ylmethyl]-2H-[1,2,3]triazol-4-yl}-amide], the EC50 at human ALX receptor is 0.9 nM. Take `Cc1cccc(-c2oc(C)nc2C(=O)Nc2cnn(Cc3coc(C(C)(F)F)n3)n2)c1` [Example 32, N-(2-((2-(1,1-Difluoroethyl)oxazol-4-yl)methyl)-2H-1,2,3-triazol-4-yl)-2-methyl-5-(m-tolyl)oxazole-4-carboxamide]: the half-maximal effective concentration (EC50) at human ALX receptor came out at 12 nM.

For the compound `Cc1nc(C(=O)Nc2cnn(Cc3nc(C(C)(F)F)cs3)n2)c(-c2cccc(OC(F)(F)F)c2)o1` [Example 14, 2-Methyl-5-(3-trifluoromethoxy-phenyl)-oxazole-4-carboxylic acid{2-[4-(1,1-difluoro-ethyl)-thiazol-2-ylmethyl]-2H-[1,2,3]triazol-4-yl}-amide], the concentration giving a half-maximal response (EC50) at human ALX receptor was found to be 58 nM. On the same count and under the same terms, in the case of `CN(C)c1cccc(-c2ocnc2C(=O)Nc2cnn(Cc3nc(C(C)(F)F)co3)n2)c1` [Example 34, 5-(3-Dimethylamino-phenyl)-oxazole-4-carboxylic acid {2-[4-(1,1-difluoro-ethyl)-oxazol-2-ylmethyl]-2H-[1,2,3]triazol-4-yl}-amide] it was 6.1 nM. Consider `Cc1cccc(-c2oc(C)nc2C(=O)Nc2cnn(Cc3ccc(C(C)(F)F)o3)n2)c1` [Example 1, 2-Methyl-5-m-tolyl-oxazole-4-carboxylic acid {2-[5-(1,1-difluoro-ethyl)-furan-2-ylmethyl]-2H-[1,2,3]triazol-4-yl}-amide], for which the 50% effective concentration (EC50) at human ALX receptor was 8.1 nM. For the compound `Cc1cccc(-c2ocnc2C(=O)Nc2cnn(Cc3nc(C(C)(F)F)cs3)n2)c1` [Example 17, 5-m-Tolyl-oxazole-4-carboxylic acid {2-[4-(1,1-difluoro-ethyl)-thiazol-2-ylmethyl]-2H-[1,2,3]triazol-4-yl}-amide], the EC50 on human ALX receptor was 11 nM. In the case of `Cc1cccc(-c2ocnc2C(=O)Nc2cnn(Cc3ccc(C(C)(F)F)o3)n2)c1` [Example 23, 5-m-Tolyl-oxazole-4-carboxylic acid {2-[5-(1,1-difluoro-ethyl)-furan-2-ylmethyl]-2H-[1,2,3]triazol-4-yl}-amide], the half-maximal effective concentration (EC50) at human ALX receptor stood at 10 nM. Same read-out and setting: next, `CC(F)(F)c1ccc(Cn2ncc(NC(=O)c3ncoc3-c3cccc(F)c3)n2)o1` [Example 11, 5-(3-Fluoro-phenyl)-oxazole-4-carboxylic acid {2-[5-(1,1-difluoro-ethyl)-furan-2-ylmethyl]-2H-[1,2,3]triazol-4-yl}-amide]: 9.9 nM; `CN(C)c1cc(-c2ocnc2C(=O)Nc2cnn(Cc3nc(C(C)(F)F)co3)n2)ccc1F` [Example 35, 5-(3-Dimethylamino-4-fluoro-phenyl)-oxazole-4-carboxylic acid {2-[4-(1,1-difluoro-ethyl)-oxazol-2-ylmethyl]-2H-[1,2,3]triazol-4-yl}-amide]: 4 nM.
